# Measured values taken from patent US20250186431A1, “PHARMACEUTICAL COMPOSITION FOR RADIOTHERAPY, AND METHOD FOR TREATING SOLID CANCER USING SAME” (Kyoto University, priority 2022, published 2025).
# Structures can show the parent of a compound that is named as a salt.
# Tests used:
# [1] = test system: OVCAR8 tumor spheroid; test: Destruction of spheroid by monochromatic X-ray irradiation; assay type: cell-based, Human; conditions: 30 minutes, then 3 days incubation
# Description: Irradiation of monochromatic X-rays was performed in beamline BL14B1 of large-scale synchrotron radiation facility SPring-8 located in Sayo-cho, Sayo-gun, Hyogo Prefecture, Japan. […] First, white X-ray generated from the bending magnet of SPring-8 was guided to an exit-position fixed two-crystal monochromator having silicon 311 crystal to generate a monoenergetic X-ray beam (monochromatic X-ray). SPring-8 storage ring was operated in the top-up mode under which fluctuation of X-ray intensity over time can be ignored due to a constant storage current of 100 mA to perform an irradiation experiment. The shape of the X-ray beam was controlled by using horizontal and vertical transport channel (TC) slits. The size of the X-ray beam at the position of a sample was 0.7 mm in height×1.4 mm in width. This is large enough to cover a spheroid having a size of 0.5 mm×0.5 mm. During experiments, the intensity of the X-ray beam was monitored in two ion chambers arranged on the optical axis. The X-ray transmitted was monitored by a CCD camera to control the position of the sample. […] Spheroids are placed at the bottom of tubes put in a sample rack.
# The iodine atom-containing Hoechst compound (I-Hoechst) and spheroids were incubated (24 hours) in the same manner as in Test Example 3 to obtain spheroids having the Hoechst compound taken up. The spheroids were put in tubes and the tubes were plated at the sample rack of the X-ray irradiation device. Since the sample rack is designed such that samples can be moved on the XYZ stage, the experimenter can perform X-ray irradiation by moving samples on the optical axis without entering the experimental hutch. After completion of X-ray irradiation to a sample, the sample rack is designed to automatically move such that the irradiation position faces the next sample. Thus, a series of X-ray irradiation can be automatically performed (see, FIG. 6). Before irradiation, the position of a sample was confirmed by an optical microscope and a laser, and monitored by a CCD camera during X-ray irradiation. Note that, since the energy of X-ray is extremely high, observation of spheroids and an absorption control of a tube by the CCD camera was not made. A refractive X-ray image of a tube was obtained to monitor of a sample position. The photon flux at a position of a sample was calculated as 3.9×10^8 (photons/second) by use of the SPECTRA code.
# The spheroids prepared as mentioned above were irradiated with a monochromatic X-ray (energy: 33.0 key, 33.2 keV or 33.4 keV) for 30 minutes. After X-ray radiation, spheroids were incubated in a CO2 incubator at 37° C. for 3 days and thereafter, observed by a confocal microscope (visible light and fluorescent light). […]
# [2] = test system: DNA double strand in OVCAR8 tumor spheroid; test: γH2AX assay of spheroids immediately after monochromatic X-ray irradiation; assay type: cell-based, Human
# Description: For investigating the mechanism of how to destroy spheroids, spheroids were irradiated with a monochromatic X-ray for 30 minutes. Immediately after irradiation and before incubation, spheroids were subjected to γH2AX assay to confirm the state of a DNA double strand. In the γH2AX assay, if a double strand is cleaved, red fluorescence is emitted. The γH2AX assay was performed by use of a commercially available kit in accordance with the instructions attached thereto.
# [3] = test system: OVCAR8 tumor spheroid (hypoxic or normoxic); test: Destruction of hypoxic spheroid by monochromatic X-ray irradiation; assay type: cell-based, Human; conditions: then monochromatic X-ray
# Description: The iodine atom-containing Hoechst compound (I-Hoechst) and spheroids were incubated (24 hours) in the same manner as in Test Example 3 to obtain spheroids having the Hoechst compound taken up therein. The spheroids were put in tubes and further incubated in a hypoxic (0% oxygen concentration) condition for further 18 hours. As a control, spheroids were incubated in a normal (not hypoxic) oxygen condition (20% oxygen concentration) in the same manner for 18 hours. After incubation in a hypoxic (or normoxic) condition, the spheroids were irradiated with monochromatic X-rays in the same manner as in Test Example 5. In the Test, whether spheroids are placed in a hypoxic condition was checked by inducing expression of a hypoxic marker, HIF-1α. Note that, HIF-1α is a kind of a hypoxia inducible factor and measurable by a commercially available kit.
# Furthermore, spheroids (nanoparticles carrying an iodine atom-containing Hoechst compound-spheroid) prepared in Test Example 8 are irradiated with monochromatic X-rays under a hypoxic condition in the same manner as in Test Example 7. It is confirmed that hypoxic spheroids irradiated with the X-rays are destroyed.
# [4] = test system: ovarian cancer OVCAR8 cells; test: Cytotoxicity test by LDH (lactate dehydrogenase) method; assay type: cell-based, Human
# Description: A Hoechst compound (normal compound containing no iodine atom) is generally considered to have low toxicity. The following experiment was carried out to confirm that iodine atom-containing Hoechst compounds have low toxicity. Iodine atom-containing Hoechst compounds (I-Hoechst, 3HCl) different in addition amount were each incubated with ovarian cancer OVCAR8 cells. Cytotoxicity was investigated by a commercially available kit in accordance with LDH (lactate dehydrogenase) method.
# Furthermore, the safety of the nanoparticles carrying an iodine atom-containing Hoechst compound is confirmed in the same manner as in Test Example 6.
# [5] = test system: Human ovarian cancer cell OVCAR8 expressing GFP; test: Uptake by cancer cell, confocal microscopy; assay type: cell-based; conditions: 50 nmol/mL, 24 hours, 37° C.
# Description: Human ovarian cancer cell OVCAR8 expressing green fluorescent protein (GFP) was used as a cancer cell. Cancer cell OVCAR8 was cultured on RPMI1640 medium containing 10% inactivated FBS and 1% penicillin/streptomycin in a culture dish having a diameter of 100 mm. Furthermore, the iodine atom-containing Hoechst compound (I-Hoechst-3HCl) (0.1 mg, 151.57 nmol) was dissolved in water (0.15 mL) to prepare a solution (the amount of Hoechst compound: 1 μmol/mL) containing the iodine atom-containing Hoechst compound. The solution was added to the culture solution such that the amount of the Hoechst compound in the culture solution became 50 nmol/mL and incubated in a CO2 incubator at 37° C. for 24 hours. Thereafter, the culture medium was removed and the cells were washed. The cells were observed by a confocal microscope. Cell nuclei can be detected based on staining with a Hoechst compound (blue color emission) and expression of GFP (green fluorescence). […]
# Nanoparticles (IH-BPMO) carrying an iodine atom-containing Hoechst (I-Hoechst) were added to a medium containing cancer cells and culture was performed for 24 hours in accordance with Test Example 8. Fluorescence was observed by a microscope.
# [6] = test system: OVCAR8 tumor spheroid; test: Uptake into tumor spheroid, confocal microscopy; assay type: cell-based, Human; conditions: 5 nmol/mL
# Description: Human ovarian cancer cell OVCAR8 expressing green fluorescent protein (GFP) was used as a cancer cell. A tumor spheroid (hereinafter also referred to as “spheroid”) was formed from the cancer cell. Cancer cell OVCAR8 was cultured on RPMI1640 medium containing 10% inactivated FBS and 1% penicillin/streptomycin in a culture dish of 100 mm in diameter. For forming spheroids, […] of OVCAR8 cells were seeded in PrimeSurface96U culture plate (MS-9096U, Sumitomo Bakelite Co., Ltd). The OVCAR8 cells were cultured in a CO2 incubator at 37° C. for 7 days. Since the cells were not able to attach to a hydrophilic plate surface, the cells came together at the bottom of a well and formed three-dimensional spheroids at the bottom. In this manner, spheroids (estimated number of cells: approximately 100,000) of 500 μm in diameter were obtained.
# Subsequently, an iodine atom-containing Hoechst compound (I-Hoechst-3HCl) (0.1 mg, 151.57 nmol) was dissolved in water (1.5 mL) to prepare a solution containing the iodine atom-containing Hoechst compound (amount of the Hoechst compound: 100 nmol/mL). […]
# For the horizontal row, images in the column indicated by “GFP” are the observation results based on a fluorescence (green), whereas images in the column indicated by “I-Hoechst” are observation results based on staining (blue) with the Hoechst compound. […]
smiles,measurement,setting,value
"CN1CCN(c2ccc3nc(-c4ccc5nc(-c6ccc(O)cc6)[nH]c5c4)[nH]c3c2)CC1 [Hoechst 33258, reference compound]",Spheroid destruction,"[1]; any of the monochromatic X-rays (33.0, 33.2 or 33.4 keV)",spheroids were not destroyed
CN1CCN(c2ccc3nc(-c4ccc5nc(-c6ccc(O)c(I)c6)[nH]c5c4)[nH]c3c2)CC1 [Hoechst 33342 analog 2],Spheroid destruction,[1]; monochromatic X-ray 33.0 keV,spheroids were not destroyed
same,Spheroid destruction,[1]; monochromatic X-ray 33.2 keV,destroyed into pieces
same,Spheroid destruction,[1]; monochromatic X-ray 33.4 keV,spheroids were destroyed even though the degree of destruction was lower than the 33.2-keV monochromatic X-ray
same,DNA double strand break (γH2AX red fluorescence),"[2]; 33.0 keV, 30 minutes, immediately after irradiation",no DNA double strands were broken
same,DNA double strand break (γH2AX red fluorescence),"[2]; 33.2 keV, 30 minutes, immediately after irradiation",a DNA double strand was broken
same,DNA double strand break (γH2AX red fluorescence),"[2]; 33.4 keV, 30 minutes, immediately after irradiation",a DNA double strand was broken although the degree of double strand break is lower than the 33.2-keV monochromatic X-ray
same,DNA double strand break (γH2AX red fluorescence),[2]; no irradiation with monochromatic X-ray,no DNA double strands were broken
same,Spheroid destruction in hypoxic condition,[3]; 0% oxygen 18 hours,effectively destroyed
same,Spheroid destruction in normoxia condition,[3]; 20% oxygen 18 hours,effectively destroyed
"CN1CCN(c2ccc3nc(-c4ccc5nc(-c6ccc(O)c(I)c6)[nH]c5c4)[nH]c3c2)CC1 [I-Hoechst-3HCl, Hoechst 33342 analog 2 trihydrochloride]",Concentration at which no toxicity was shown (LDH method),[4],≤ 20 µM
same,Uptake and localization in cancer cell,[5],"taken up within the cell, transported to the nucleus of the cell and localized in DNA"
same,Permeation into interior of spheroid,[6]; confocal microscope,reaches not only cells close to the surface of a spheroid but also cells located at the center of the spheroid
same,Uptake and distribution in spheroids,"[6]; incubation 1, 24, 96 hours",efficiently taken up by spheroids and uniformly distributed over the entire spheroids 24 hours later
